Test results from the supplement of paper PMC11451515.

Tests used:
Conditions in all cases: 48 h
NOMO1 [1] = test: AUC of viability dose-response curve (% viability x log10 dose units); higher = less sensitive
How it was run: (§1)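 Medium-adapted leukemia cells in 1536-well plates, at 500 or 1000 cells/well, were incubated for 48 h at 37°C with library compounds in DMSO at 11 threefold doses from 47 μM to 0.79 nM. CellTiter-Glo One luminescence normalised per plate to DMSO and cell-free wells was fitted with a four-parameter log-logistic model over log10 doses. Area under the curve was integrated from this fit by trapezoidal rule, with curves beyond full viability scaled and failed quality-control curves removed.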

SEM cells [2] = test: as above
How it was run: as §1

P12-Ichikawa [3] = test: as above
How it was run: as §1

NOMO1 [4] = test: cell viability relative to DMSO control; higher = less cytotoxic
How it was run: (§2)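 Viability was expressed as a per-plate percentage of DMSO wells, with cell-free wells as background. Leukemia cells (NOMO1 or SEM at 500 cells/well, P12-Ichikawa at 1000 cells/well) were adapted for at least four passages in each medium and seeded in 1536-well plates (5 μl). Library compounds in DMSO were pin-dosed over an 11-point threefold series from 47 μM to 0.79 nM, and CellTiter-Glo One luminescence was read after 48 h at 37°C.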

SEM cells [5] = test: as above
How it was run: as §2

P12-Ichikawa [6] = test: as above
How it was run: as §2

COc1ccc(/C=C/C(=O)Nc2ccccc2C(=O)O)cc1OC
AUC of viability dose-response curve
Conditions	NOMO1 [1]	P12-Ichikawa [3]	SEM cells [2]
HPLM + 10% dialyzed FBS	434	453	446
RPMI 5 mM glucose + 10% FBS	455	458	438
RPMI 5 mM glucose + 10% dialyzed FBS	463	450	448

cell viability [%]
Conditions	NOMO1 [4]	P12-Ichikawa [6]	SEM cells [5]
HPLM + 10% dialyzed FBS, 0.000781 µM	119	110	–
HPLM + 10% dialyzed FBS, 0.00234 µM	105	111	–
HPLM + 10% dialyzed FBS, 0.00702 µM	120	108	–
HPLM + 10% dialyzed FBS, 0.0211 µM	149	112	–
HPLM + 10% dialyzed FBS, 0.0632 µM	112	121	–
HPLM + 10% dialyzed FBS, 0.19 µM	117	108	–
HPLM + 10% dialyzed FBS, 0.569 µM	119	93.1	–
HPLM + 10% dialyzed FBS, 1.71 µM	78.8	100	–
HPLM + 10% dialyzed FBS, 5.12 µM	120	108	–
HPLM + 10% dialyzed FBS, 15.4 µM	73.7	99.3	–
HPLM + 10% dialyzed FBS, 46.1 µM	86.9	102	–
RPMI 5 mM glucose + 10% FBS, 0.000781 µM	108	112	109
RPMI 5 mM glucose + 10% FBS, 0.00234 µM	111	108	140
RPMI 5 mM glucose + 10% FBS, 0.00702 µM	108	113	118
RPMI 5 mM glucose + 10% FBS, 0.0211 µM	109	115	130
RPMI 5 mM glucose + 10% FBS, 0.0632 µM	114	113	99.4
RPMI 5 mM glucose + 10% FBS, 0.19 µM	110	101	97.5
RPMI 5 mM glucose + 10% FBS, 0.569 µM	105	107	110
RPMI 5 mM glucose + 10% FBS, 1.71 µM	95	106	116
RPMI 5 mM glucose + 10% FBS, 5.12 µM	112	107	125
RPMI 5 mM glucose + 10% FBS, 15.4 µM	92.3	105	106
RPMI 5 mM glucose + 10% FBS, 46.1 µM	87.5	102	104
RPMI 5 mM glucose + 10% dialyzed FBS, 0.000781 µM	104	103	94.7
RPMI 5 mM glucose + 10% dialyzed FBS, 0.00234 µM	114	101	115
RPMI 5 mM glucose + 10% dialyzed FBS, 0.00702 µM	118	113	110
RPMI 5 mM glucose + 10% dialyzed FBS, 0.0211 µM	94.8	114	108
RPMI 5 mM glucose + 10% dialyzed FBS, 0.0632 µM	104	111	35.1
RPMI 5 mM glucose + 10% dialyzed FBS, 0.19 µM	128	110	115
RPMI 5 mM glucose + 10% dialyzed FBS, 0.569 µM	105	98.5	96.7
RPMI 5 mM glucose + 10% dialyzed FBS, 1.71 µM	110	80.4	110
RPMI 5 mM glucose + 10% dialyzed FBS, 5.12 µM	104	103	116
RPMI 5 mM glucose + 10% dialyzed FBS, 15.4 µM	104	98.5	129
RPMI 5 mM glucose + 10% dialyzed FBS, 46.1 µM	83.8	94.8	96.7

CC[C@H]1OC(=O)[C@H](C)[C@@H](O[C@H]2C[C@@](C)(OC)[C@@H](O)[C@H](C)O2)[C@H](C)[C@@H](O[C@@H]2O[C@H](C)C[C@H](N(C)C)[C@H]2O)[C@](C)(O)C[C@@H](C)/C(=N\OCOCCOC)[C@H](C)[C@@H](O)[C@]1(C)O
AUC of viability dose-response curve
Conditions	NOMO1 [1]	P12-Ichikawa [3]	SEM cells [2]
HPLM + 10% dialyzed FBS	409	423	423
RPMI 5 mM glucose + 10% FBS	424	390	444
RPMI 5 mM glucose + 10% dialyzed FBS	374	407	465

cell viability [%]
Conditions	NOMO1 [4]	P12-Ichikawa [6]	SEM cells [5]
HPLM + 10% dialyzed FBS, 0.000781 µM	101	92.4	95.3
HPLM + 10% dialyzed FBS, 0.00234 µM	95.6	96.1	89
HPLM + 10% dialyzed FBS, 0.00702 µM	86	93.5	95.1
HPLM + 10% dialyzed FBS, 0.0211 µM	89.4	90.4	95.3
HPLM + 10% dialyzed FBS, 0.0632 µM	92.9	102	105
HPLM + 10% dialyzed FBS, 0.19 µM	89.6	87.8	83.1
HPLM + 10% dialyzed FBS, 0.569 µM	78.6	87.3	76.7
HPLM + 10% dialyzed FBS, 1.71 µM	75.3	82.9	93.6
HPLM + 10% dialyzed FBS, 5.12 µM	80.1	86.4	85.2
HPLM + 10% dialyzed FBS, 15.4 µM	68.5	76.9	80.5
HPLM + 10% dialyzed FBS, 46.1 µM	85.5	77.3	73.4
RPMI 5 mM glucose + 10% FBS, 0.000781 µM	85.2	81.3	107
RPMI 5 mM glucose + 10% FBS, 0.00234 µM	92	85	98.1
RPMI 5 mM glucose + 10% FBS, 0.00702 µM	95	84.9	109
RPMI 5 mM glucose + 10% FBS, 0.0211 µM	84.6	88.3	108
RPMI 5 mM glucose + 10% FBS, 0.0632 µM	89.5	94.3	111
RPMI 5 mM glucose + 10% FBS, 0.19 µM	90.7	76.8	87.4
RPMI 5 mM glucose + 10% FBS, 0.569 µM	87.3	72.4	94.6
RPMI 5 mM glucose + 10% FBS, 1.71 µM	88.9	73.1	97.5
RPMI 5 mM glucose + 10% FBS, 5.12 µM	90.9	82.3	96.9
RPMI 5 mM glucose + 10% FBS, 15.4 µM	91.1	82.4	87.9
RPMI 5 mM glucose + 10% FBS, 46.1 µM	82	79.6	95.6
RPMI 5 mM glucose + 10% dialyzed FBS, 0.000781 µM	85.9	89.2	103
RPMI 5 mM glucose + 10% dialyzed FBS, 0.00234 µM	79.3	90.1	104
RPMI 5 mM glucose + 10% dialyzed FBS, 0.00702 µM	83.3	90.2	107
RPMI 5 mM glucose + 10% dialyzed FBS, 0.0211 µM	74.1	91.6	116
RPMI 5 mM glucose + 10% dialyzed FBS, 0.0632 µM	76.6	112	108
RPMI 5 mM glucose + 10% dialyzed FBS, 0.19 µM	69.5	72	96.3
RPMI 5 mM glucose + 10% dialyzed FBS, 0.569 µM	72.1	61.3	92.9
RPMI 5 mM glucose + 10% dialyzed FBS, 1.71 µM	82.1	85.2	103
RPMI 5 mM glucose + 10% dialyzed FBS, 5.12 µM	80.1	81.9	100
RPMI 5 mM glucose + 10% dialyzed FBS, 15.4 µM	79.8	71.5	93.8
RPMI 5 mM glucose + 10% dialyzed FBS, 46.1 µM	79.8	94.3	71.7

CNC(=O)c1nn(C)c2c1C(C)(C)Cc1cnc(Nc3ccc(N4CCN(C)CC4)cc3)nc1-2
AUC of viability dose-response curve
Conditions	NOMO1 [1]	P12-Ichikawa [3]	SEM cells [2]
HPLM + 10% dialyzed FBS	371	404	269
RPMI 5 mM glucose + 10% FBS	400	384	265
RPMI 5 mM glucose + 10% dialyzed FBS	386	376	275

cell viability [%]
Conditions	NOMO1 [4]	P12-Ichikawa [6]	SEM cells [5]
HPLM + 10% dialyzed FBS, 0.000781 µM	125	106	108
HPLM + 10% dialyzed FBS, 0.00234 µM	108	107	101
HPLM + 10% dialyzed FBS, 0.00702 µM	104	112	103
HPLM + 10% dialyzed FBS, 0.0211 µM	104	105	93
HPLM + 10% dialyzed FBS, 0.0632 µM	99.7	108	89.1
HPLM + 10% dialyzed FBS, 0.19 µM	113	111	64.6
HPLM + 10% dialyzed FBS, 0.569 µM	103	108	39.3
HPLM + 10% dialyzed FBS, 1.71 µM	65.8	83.7	16
HPLM + 10% dialyzed FBS, 5.12 µM	55.6	76	12
HPLM + 10% dialyzed FBS, 15.4 µM	47.8	36.7	7.99
HPLM + 10% dialyzed FBS, 46.1 µM	8.74	35.6	7.09
RPMI 5 mM glucose + 10% FBS, 0.000781 µM	111	113	115
RPMI 5 mM glucose + 10% FBS, 0.00234 µM	114	113	97.1
RPMI 5 mM glucose + 10% FBS, 0.00702 µM	103	119	113
RPMI 5 mM glucose + 10% FBS, 0.0211 µM	107	123	104
RPMI 5 mM glucose + 10% FBS, 0.0632 µM	115	117	86.5
RPMI 5 mM glucose + 10% FBS, 0.19 µM	111	120	67.4
RPMI 5 mM glucose + 10% FBS, 0.569 µM	100	109	48.8
RPMI 5 mM glucose + 10% FBS, 1.71 µM	86.6	79	13.8
RPMI 5 mM glucose + 10% FBS, 5.12 µM	78.8	65.4	8.18
RPMI 5 mM glucose + 10% FBS, 15.4 µM	48.3	44.8	5.66
RPMI 5 mM glucose + 10% FBS, 46.1 µM	13.2	26.4	2.21
RPMI 5 mM glucose + 10% dialyzed FBS, 0.000781 µM	113	107	97.9
RPMI 5 mM glucose + 10% dialyzed FBS, 0.00234 µM	102	119	101
RPMI 5 mM glucose + 10% dialyzed FBS, 0.00702 µM	107	123	101
RPMI 5 mM glucose + 10% dialyzed FBS, 0.0211 µM	106	123	110
RPMI 5 mM glucose + 10% dialyzed FBS, 0.0632 µM	118	110	78.6
RPMI 5 mM glucose + 10% dialyzed FBS, 0.19 µM	108	115	69.5
RPMI 5 mM glucose + 10% dialyzed FBS, 0.569 µM	103	95.9	47.2
RPMI 5 mM glucose + 10% dialyzed FBS, 1.71 µM	75.6	77.1	16.8
RPMI 5 mM glucose + 10% dialyzed FBS, 5.12 µM	66	61.9	9.79
RPMI 5 mM glucose + 10% dialyzed FBS, 15.4 µM	46.8	36.1	7.03
RPMI 5 mM glucose + 10% dialyzed FBS, 46.1 µM	8.73	35.3	4.75
